In patent US20250057860A1, “READY-TO-DILUTE FORMULATION” (priority 2021, published 2025):

Assays:
[1] = cited from earlier work
[2] = Initial screening: effect of excipients on remdesivir solubility; format: physicochemical
[3] = Solubility of remdesivir in water in the presence of surfactants; format: physicochemical
Method: The effect of various surfactants on the solubility of remdesivir in water was also tested.

For remdesivir, the “solubility in water (in words)” value [1] is listed as “insoluble”, the Solubility ([2]; in Benzyl Alcohol) is listed as no less than 56 mg/mL and the Solubility ([2]; in Ethanol) is listed as no less than 21 mg/mL. The Solubility ([2]; in N-methyl pyrrolidone) was greater than 100 mg/mL, the Solubility ([2]; in N-methyl-2-pyrrolidone (NMP)) was no less than 112 mg/mL and the Solubility ([2]; in NMP + Ethanol) was no less than 226 mg/mL. For the same substance, the Solubility ([2]; in PEG 300) was no less than 39 mg/mL, the Solubility ([2]; in PEG 400) was no less than 16 mg/mL and the Solubility ([2]; in PEG 400 + Glycerol (3:5)) was 0.011 mg/mL. The Solubility ([2]; in PEG 400 + Glycerol (3:10)) was 0.0008 mg/mL, the Solubility ([2]; in PEG 600) was no less than 6.2 mg/mL and the Solubility ([2]; in PEG 1000) was no less than 6.3 mg/mL. The Solubility ([2]; in Peppermint Oil) was 15.9 mg/mL, the Solubility ([2]; in Plasdone (PVP) + PEG 300) was no less than 66 mg/mL and the Solubility ([2]; in Propylene Glycol) was no less than 29 mg/mL. For the same substance, the Solubility ([2]; in Soluplus + Ethanol + Water) was no less than 34 mg/mL, the Solubility ([2]; in Span 20) was 0.006 mg/mL and the Solubility ([2]; in Span 80) was 0.3 mg/mL. For the same substance, the Solubility ([2]; in low molecular weight polyethylene glycols (PEG 300 and 400) in the presence of low molecular weight PVP) was “over 50 mg/ml”, the “Remdesivir Solubility” value ([3]; water with Kolliphor EL (Polyoxyl 35 Castor Oil; Cremophor) 0.10 % w/w) was 0.020 mg/mL and the “Remdesivir Solubility” value ([3]; water with Poloxamer P407 0.07 % w/w) was 0.006 mg/mL. The “Remdesivir Solubility” value ([3]; water with TWEEN 20 (Polysorbate 20) 0.16 % w/w) was 0.016 mg/mL and the “Remdesivir Solubility” value ([3]; water with TWEEN 80 (Polysorbate 80) 0.30 % w/w) was 0.033 mg/mL.
